The source of these data is patent publication US20260048051A1, “TREATMENT OF INFLAMMATORY BOWEL DISEASE” (Atomwise Inc., priority 2024, published 2026).

The first assay deals with IL-6 induced pSTAT3. The experiment in a line: IL-6 induced pSTAT3 assay in TF-1 cells. In kind it is cell-based. Conditions: Homo sapiens, read-out: Cellular selectivity (IL-6/pSTAT3). The method, then: The following example describes the IL-6 induced pSTAT3 assay used to determine the cellular selectivity (IL-6/pSTAT3) of the TYK2 inhibitors.
TF-1 (ATCC®, CRL-2003™) cells were cultured in RPMI 1640 Medium, with GlutaMAX™ Supplement, HEPES for Cell Culture (Life Technologies, 72400047), 10% Fetal Bovine Serum (Life Technologies, 26400044), 2 ng/mL human recombinant GM-CSF (Life Technologies, PHC2013), 1 mM Sodium pyruvate (Life Technologies, 11360039), 1% MEM NEAA (Life Technologies, 11140-035), 1% Penicillin/Streptomycin (Life Technologies, 15140-122).
TF-1 (70×10^6) cells were starved overnight in T150 flasks (Opti-MEM™ I Reduced Serum Medium, no phenol red (Life Technologies, 11058-021), 1 mM Na pyruvate (Life Technologies, 11360039), 1% MEM NEAA (Life Technologies, 11140-035), and 1% Penicillin/Streptomycin (Life Technologies, 15140-122)) then seeded into 96-well TPP plates (150 000 cell/well) and incubated with test compounds (Final Concentration [nM]10000-0.05) for 30 minutes at 37° C. […] Stimulation was terminated by addition of lysis buffer (MSD K150SVD) and pSTAT3 detection was measured with Phospho-STAT3 (Tyr705) Kit MSD K150SVD)) according to manufacturer's instruction. Briefly, cell lysates were added to pre-blocked plates, sealed, and shake for 1 hour at room temperature. Plates were then washed and incubated with detection antibody for 1 hour at room temperature. After washing, Read Buffer was added, and plates were read on MSD instrument (Model 1300 MSD Quickplex SQ120).
For `C[C@H](c1ccc(Nc2cc(Nc3ncccc3S(C)(=O)=O)ncn2)nc1)N1CC2(COC2)C1` [Compound 17, (R)—N^4-(5-(1-(2-oxa-6-azaspiro[3.3]heptan-6-yl)ethyl)pyridin-2-yl)-N^6-(3-(methylsulfonyl)pyridin-2-yl)pyrimidine-4,6-diamine], the IC50 is greater than 10 µM.

For a further assay, the target named is T1, TYK2-JH2 (Homo sapiens, UniProt P29597).
T1 construct: TYK JH2 enzyme mix (ChemPartner: CP20210818A-BV); purchased ChemPartner CP20210818A-BV
T1 sequence (P29597 589-875 limits assumed): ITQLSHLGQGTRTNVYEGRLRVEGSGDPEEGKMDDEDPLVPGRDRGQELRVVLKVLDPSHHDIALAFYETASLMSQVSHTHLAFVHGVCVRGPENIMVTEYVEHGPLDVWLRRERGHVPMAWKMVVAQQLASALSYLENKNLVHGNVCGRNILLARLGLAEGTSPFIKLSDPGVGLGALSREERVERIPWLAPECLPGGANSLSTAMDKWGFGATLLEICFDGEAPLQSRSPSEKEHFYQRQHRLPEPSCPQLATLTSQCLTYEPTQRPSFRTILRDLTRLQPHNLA
Put plainly: TYK2-JH2 HTRF binding assay (ligand efficiency). Conditions: calculated from binding-assay IC50 (Equation 1). The method, then:
The following example describes the TYK2-JH2 HTRF binding assay used to determine the ligand efficiency of the TYK2 inhibitors.
To calculate ligand efficiency, Equation 1 is applied: […]
in which IC50 comes from the binding assay used to determine compound potency.
TYK JH2 enzyme mix (ChemPartner: CP20210818A-BV), tracer (ChemPartner: CP-0029472-051) and mAb Anti-6HIS Tb cryptate Gold (Cisbio: Cat No. 61HI2TLA) mix were prepared in assay buffer (10 mM MgCl2, 20 mM HEPES pH 7.5, 0.01% Triton X-100, 1 mM DTT). Compounds diluted in DMSO (Final Concentrations 0.1 to 0.000005 [μM]) and enzyme mix (0.5 nM Final Concentration) were added to 384 well plates, briefly centrifuged and incubated at room temperature for 10 minutes. After incubation, tracer mix (Tracer-35 nM final concentration); (MAb Anti-6HIS Tb cryptate Gold-0.5× final)) was added, briefly centrifuged then incubate at room temperature 60 minutes. After incubation, plates were read by Envision TR-FRET (Ex340/Em495/520) protocol (PerkinElmer-Envision 2104 multilabel plate reader).
With `C[C@H](c1ccc(Nc2cc(Nc3ncccc3S(C)(=O)=O)ncn2)nc1)N1CC2(COC2)C1` [Compound 17, (R)—N^4-(5-(1-(2-oxa-6-azaspiro[3.3]heptan-6-yl)ethyl)pyridin-2-yl)-N^6-(3-(methylsulfonyl)pyridin-2-yl)pyrimidine-4,6-diamine], the “Ligand Efficiency” value is recorded as “†† (††: 0.37-0.39)”.

With `CS(=O)(=O)c1ccccc1Nc1cc(Nc2ccc(NC3COC3)cn2)ncn1` [Compound 80, N^4-(2-(methylsulfonyl)phenyl)-N^6-(5-(oxetan-3-ylamino)pyridin-2-yl) pyrimidine-4,6-diamine], the “Ligand Efficiency” value was “† (†: < 0.37)”.

On to `C[C@H]1CN(C)CCN1c1ccc(Nc2cc(Nc3ncccc3S(C)(=O)=O)ncn2)nc1` [Compound 20, (S)—N^4-(5-(2,4-dimethylpiperazin-1-yl)pyridin-2-yl)-N^6-(3-(methylsulfonyl)pyridin-2-yl)pyrimidine-4,6-diamine], for which the “Ligand Efficiency” value was “††† (†††: >0.39)”.

For `Cc1cccc(Nc2cc(Nc3cccnc3C(N)=O)ncn2)n1` [Compound 50, 3-((6-((6-methylpyridin-2-yl)amino)pyrimidin-4-yl)amino) picolinamide], the “Ligand Efficiency” value is “††† (†††: >0.39)”.

In the case of `CC(c1ccc(Nc2cc(Nc3ncccc3S(C)(=O)=O)ncn2)nc1)N1CC2(CC(F)C2)C1` (stereo in doubt) [Compound 10, N^4-(5-((1R)-1-(6-fluoro-2-azaspiro[3.3]heptan-2-yl)ethyl)pyridin-2-yl)-N^6-(3-(methylsulfonyl)pyridin-2-yl)pyrimidine-4,6-diamine], the “Ligand Efficiency” value was “††† (†††: >0.39)”.

For `Cc1cccc(Nc2cc(Nc3ccccc3C(N)=O)ncn2)n1` [Compound 46], the “Ligand Efficiency” value was “††† (†††: >0.39)”.

For `CS(=O)(=O)c1ccccc1Nc1cc(NC(=O)C2CC2)ncn1` [Compound 69, N^4-(cyclopropylcarbonyl)-N^6-(2-(methylsulfonyl)phenyl)pyrimidine-4,6-diamine], the “Ligand Efficiency” value is listed as “††† (†††: >0.39)”.

`COc1ccnc(Nc2cc(Nc3cccc(C)n3)ncn2)c1S(C)(=O)=O` [Compound 65, N^4-(4-methoxy-3-(methylsulfonyl)pyridin-2-yl)-N^6-(6-methylpyridin-2-yl)pyrimidine-4,6-diamine]: the “Ligand Efficiency” value is recorded as “††† (†††: >0.39)”.

As to `Cc1cc(Nc2cc(Nc3ncccc3S(C)(=O)=O)ncn2)nnc1C(C)N1CC2(COC2)C1` (stereo not drawn) [Compound 77, N^4-(6-(1-(2-oxa-6-azaspiro[3.3]heptan-6-yl)ethyl)-5-methylpyridazin-3-yl)-N^6-(3-(methylsulfonyl)pyridin-2-yl)pyrimidine-4,6-diamine], the “Ligand Efficiency” value was “†† (††: 0.37-0.39)”.

For the molecule `CC(C)(NC1COC1)c1ccc(Nc2cc(Nc3ccccc3S(C)(=O)=O)ncn2)nc1` [Compound 39, N^4-(2-(methylsulfonyl)phenyl)-N^6-(5-(2-(oxetan-3-ylamino)propan-2-yl)pyridin-2-yl)pyrimidine-4,6-diamine], the “Ligand Efficiency” value is recorded as “†† (††: 0.37-0.39)”.

Consider `Cc1cnnc(Nc2cc(Nc3ccccc3C(N)=O)ncn2)c1` [Compound 47, 2-((6-((5-methylpyridazin-3-yl)amino)pyrimidin-4-yl)amino) benzamide], for which the “Ligand Efficiency” value was “††† (†††: >0.39)”.

Take `CC1(CNc2ccc(Nc3cc(Nc4ncccc4S(C)(=O)=O)ncn3)nc2)COC1` [Compound 36, N^4-(5-(((3-methyloxetan-3-yl)methyl)amino)pyridin-2-yl)-N^6-(3-(methylsulfonyl)pyridin-2-yl)pyrimidine-4,6-diamine]: the “Ligand Efficiency” value is “††† (†††: >0.39)”.

With `C[C@@H](c1ccc(Nc2cc(Nc3ncccc3S(C)(=O)=O)ncn2)nc1)N1CC2(CCOC2)C1` [Compound 32, (S)—N^4-(5-(1-(6-oxa-2-azaspiro[3.4]octan-2-yl)ethyl)pyridin-2-yl)-N^6-(3-(methylsulfonyl)pyridin-2-yl)pyrimidine-4,6-diamine], the “Ligand Efficiency” value is “††† (†††: >0.39)”.

For `Cn1cc(-c2ccnc(Nc3cc(Nc4ccc(NC5(C)COC5)cn4)ncn3)c2S(C)(=O)=O)cn1` [Compound 72, N^4-(4-(1-methyl-1H-pyrazol-4-yl)-3-(methylsulfonyl)pyridin-2-yl)-N^6-(5-(3-methyloxetan-3-ylamino)pyridin-2-yl)pyrimidine-4,6-diamine], the “Ligand Efficiency” value is “† (†: < 0.37)”.

As to `CC(c1ccc(Nc2cc(Nc3ncccc3S(C)(=O)=O)ncn2)nc1)N1CC2(CCOCC2)C1` (stereo in doubt) [Compound 31, (R)—N^4-(5-(1-(7-oxa-2-azaspiro[3.5]nonan-2-yl)ethyl)pyridine-2-yl)-N^6-(3-(methylsulfonyl)pyridin-2-yl)pyrimidine-4,6-diamine], the “Ligand Efficiency” value is given as “†† (††: 0.37-0.39)”.

For `CS(=O)(=O)c1cccnc1Nc1cc(Nc2ccc(N3CCN(C4CC4)CC3)cn2)ncn1` [Compound 7, N^4-(5-(4-cyclopropylpiperazin-1-yl)pyridin-2-yl)-N^6-(3-(methylsulfonyl)pyridin-2-yl)pyrimidine-4,6-diamine], the “Ligand Efficiency” value is “††† (†††: >0.39)”.

Turning to `Cc1cccc(Nc2cc(Nc3ccccc3NS(C)(=O)=O)ncn2)n1` [Compound 53, N-(2-(6-(6-methylpyridin-2-ylamino)pyrimidin-4-ylamino)phenyl) methanesulfonamide], the “Ligand Efficiency” value is listed as “††† (†††: >0.39)”.

On to `Cc1ccnc(Nc2cc(Nc3ccccc3S(C)(=O)=O)ncn2)c1` [Compound 44, N^4-(4-methylpyridin-2-yl)-N^6-(2-(methylsulfonyl)phenyl) pyrimidine-4,6-diamine], for which the “Ligand Efficiency” value is on record as “††† (†††: >0.39)”.

In the case of `Cc1cncc(Nc2cc(Nc3ccccc3C(N)=O)ncn2)n1` [Compound 49, 2-(6-(6-methylpyrazin-2-ylamino)pyrimidin-4-ylamino)benzamide], the “Ligand Efficiency” value is reported as “††† (†††: >0.39)”.

Another assay has as its system GM-CSF induced pSTAT5. The experiment in a line: GM-CSF induced pSTAT5 assay in CellSensor irf1-bla TF-1 cells. In kind it is cell-based. Conditions: GM-CSF 1 ng/mL. The method, then:
The CellSensor irfl-bla TF-1 cell line (LifeTechnologies, K1657) was cultured in RPMI 1640 Medium (Invitrogen 72400-047), 10% Fetal Bovine Serum (Invitrogen, 26400044), 1 mM Sodium pyruvate (Life Technologies, 11360039), 1% MEM NEAA (Life Technologies, 11140-035), 2 ng/ml of human recombinant GM-CSF (Fisher, PHC2015), 1% Penicillin/Streptomycin (Life Technologies, 15140-122) and 5 µg/ml of Blasticidin (ThermoFisher, A1113903).
The cell line was seeded in a T75 flask at 13×10^6 cells/50 mL in starvation medium (Opti-MEM™ I Reduced Serum Medium, no phenol red (Life Technologies, 11058-021), 1 mM Na pyruvate (Life Technologies, 11360039), 1% MEM NEAA (Life Technologies, 11140-035), and 1% Penicillin/Streptomycin (Life Technologies, 15140-122)) for 16 hours at 37° C. under 5% CO2 the day before the assay.
For the assay, CellSensor irfl-bla TF-1 cells were seeded at 30 000 cells/32 μL (starvation medium)/well in a 384-well plate.
Compounds were added on the cells in 4 μL (starvation medium)/well at 10× the final concentration. They were incubated for 30 minutes at 37° C.
Human recombinant carrier-free GM-CSF (ThermoFisher, ref PHC2015) was added to the wells in 4 μL (starvation medium)/well at 10×. The final concentration was 1 ng/mL. Control wells without GM-CSF treatment were added. Plates were incubated for 5 hours at 37° C.
6× LiveBlazer-FRET substrate (Invitrogen, K1085) was added to the wells at 8 μL/well. The substrate was prepared shortly before use by mixing 6 μL of solution A and 60 μL of solution B to 934 μL of solution C. Plates were incubated for 2.5 hours at room temperature in the dark. The plates were read on an Envision (Perkin Elmer) with an excitation at a wavelength of 409 nm and two wavelengths for the emission 520 nm and 450 nm. The ratio between the […] emission was used to calculate the IC50s.
The IC50 for the inhibition of pSTAT5 was calculated with the XLfit software using the 4 Parameter Logistic Model or Sigmoidal Dose-Response Model (model 205).
As for `C[C@H](c1ccc(Nc2cc(Nc3ncccc3S(C)(=O)=O)ncn2)nc1)N1CC2(COC2)C1` [Compound 17, (R)—N^4-(5-(1-(2-oxa-6-azaspiro[3.3]heptan-6-yl)ethyl)pyridin-2-yl)-N^6-(3-(methylsulfonyl)pyridin-2-yl)pyrimidine-4,6-diamine], the “Cellular selectivity (GM-CSF induced pSTAT5)” value is “††††”.
